Broadly, the half-life is the time needed for the level to fall by half in the phase considered. The low end stands for fast loss, the high end for slow loss. The bioavailability is the share of a dose that reaches the circulation, judged against a reference dose that is usually intravenous. A low value points to little systemic uptake. In general, clearance refers to a measure of how efficiently the substance is removed, as volume per time. A low value points to a low capacity for elimination. By Tmax is commonly meant the time at which the peak concentration occurs. A word on the IC50: it is the concentration that inhibits the measured activity by half. In general, EC50 refers to the concentration that produces a half-maximal response.

The text below walks through data of ChEMBL document CHEMBL4842383 (J Med Chem, 2021).

Data set [1] is described as follows: Half life in Sprague-Dawley rat at 20 to 25 mg/kg, po measured up to 24 hrs by LC-MS/MS analysis. The format is ADME, organism-based. To be noted: in vivo, dose 20-25 mg/kg.
The nature of data set [2]: Volume of distribution at steady state in Sprague-Dawley rat at 5 mg/kg, iv measured up to 24 hrs by LC-MS/MS analysis. The format is ADME, organism-based. To be noted: in vivo, read-out: Vdss.
Data set [3] can be described thus: Toxicity in C57BL/6 mouse inoculated with mouse MC38 cells assessed as body weight loss at 100 mg/kg, po twice a day for 2 weeks by five days on/two days off schedule relative to control. The format is organism-based, MC-38. To be noted: in vivo, 336 h.
In data set [4] the test system is Mus musculus. As to the kind of experiment: Immunomodulatory activity in mouse MC38 cells inoculated C57BL/6 mouse syngeneic model assessed as […] in M1 like TAM (CD86+ CD11b+ F4/80+)at 100 mg/kg, po twice a day for 2 weeks by five days on/two days off schedule relative to control. The format is functional, MC-38.
The nature of data set [5]: Dose normalized Cmax in Sprague-Dawley rat at 20 to 25 mg/kg, po measured up to 24 hrs by LC-MS/MS analysis. The format is ADME, organism-based. To be noted: in vivo, dose 20-25 mg/kg.
A short description of data set [6]: Oral bioavailability in Sprague-Dawley rat at 20 to 25 mg/kg measured up to 24 hrs by LC-MS/MS analysis. The format is ADME, organism-based. The note with it: in vivo, dose 20-25 mg/kg.
The next data set concerns MC-38. As to the kind of experiment: Antitumor activity against mouse MC38 cells inoculated C57BL/6 mouse syngeneic model assessed as tumor growth inhibition at 100 mg/kg, po twice a day for 2 weeks by five days on/two days off schedule relative to control. The format is functional. To be noted: MC-38, po, 336 h, read-out: TGI.
Data set [7] is described as follows: Clearance in Sprague-Dawley rat at 5 mg/kg, iv measured up to 24 hrs by LC-MS/MS analysis. The format is ADME, organism-based. The note with it: in vivo.
Data set [8] deals with Mus musculus. As to the kind of experiment: Immunomodulatory activity in mouse MC38 cells inoculated C57BL/6 mouse syngeneic model assessed as decrease in M2 like TAM (CD206+ CD11b F4/80+) at 100 mg/kg, po twice a day for 2 weeks by five days on/two days off schedule relative to control. The format is functional, MC-38.
A short description of data set [9]: Tmax in Sprague-Dawley rat at 20 to 25 mg/kg, po measured up to 24 hrs by LC-MS/MS analysis. The format is ADME, organism-based. To be noted: in vivo, dose 20-25 mg/kg.
Data set [10] can be described thus: Half life in Sprague-Dawley rat at 5 mg/kg, iv measured up to 24 hrs by LC-MS/MS analysis. The format is ADME, organism-based. To be noted: in vivo.
The target of data set [11] is Serine/threonine-protein kinase PAK 3 (Homo sapiens, UniProt O75914). Description: Inhibition of wild-type human full length PAK3 (M1 to R544 residues) expressed in bacterial expression system by Kinomescan method.
Data set [12] addresses T1, Receptor-type tyrosine-protein kinase FLT3 (Homo sapiens, UniProt P36888).
T1 sequence (P36888 whole entry): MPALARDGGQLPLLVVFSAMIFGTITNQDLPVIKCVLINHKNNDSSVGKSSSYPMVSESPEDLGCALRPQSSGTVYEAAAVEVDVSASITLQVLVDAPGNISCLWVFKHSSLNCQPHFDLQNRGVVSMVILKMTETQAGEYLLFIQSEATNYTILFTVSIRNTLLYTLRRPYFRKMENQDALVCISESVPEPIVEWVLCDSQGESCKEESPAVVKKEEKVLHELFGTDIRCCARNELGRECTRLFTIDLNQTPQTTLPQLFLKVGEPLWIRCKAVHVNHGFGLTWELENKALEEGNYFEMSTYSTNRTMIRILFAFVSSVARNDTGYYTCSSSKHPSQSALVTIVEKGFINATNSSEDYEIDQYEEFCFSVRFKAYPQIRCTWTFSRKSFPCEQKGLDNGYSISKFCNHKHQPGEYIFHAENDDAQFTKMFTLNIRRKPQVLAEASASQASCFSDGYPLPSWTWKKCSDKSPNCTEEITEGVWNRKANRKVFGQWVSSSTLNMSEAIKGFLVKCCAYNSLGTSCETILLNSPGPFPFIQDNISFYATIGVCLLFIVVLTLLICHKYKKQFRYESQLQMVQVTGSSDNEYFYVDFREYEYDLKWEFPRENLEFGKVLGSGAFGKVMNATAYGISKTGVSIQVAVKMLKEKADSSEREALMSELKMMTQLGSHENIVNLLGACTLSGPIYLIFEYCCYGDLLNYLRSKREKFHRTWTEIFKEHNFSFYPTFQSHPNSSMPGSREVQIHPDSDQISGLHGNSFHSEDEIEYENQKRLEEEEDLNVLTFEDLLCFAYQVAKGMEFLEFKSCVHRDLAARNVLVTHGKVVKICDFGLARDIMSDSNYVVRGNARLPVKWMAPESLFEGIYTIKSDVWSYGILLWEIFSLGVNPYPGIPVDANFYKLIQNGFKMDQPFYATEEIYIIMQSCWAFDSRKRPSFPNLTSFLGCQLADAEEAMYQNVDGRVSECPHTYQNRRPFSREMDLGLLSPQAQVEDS
Description: Inhibition of wild-type human partial length FLT3 (V592 to Y969 residues) expressed in bacterial expression system by Kinomescan method.

For data set [13], the target named is T2, Aurora kinase B (Homo sapiens, UniProt Q96GD4). As to the kind of experiment: Inhibition of wild-type human partial length AURKB (D25 to A303 residues) expressed in mammalian expression system by Kinomescan method.
T2 sequence (Q96GD4 whole entry, the tested form may be a part): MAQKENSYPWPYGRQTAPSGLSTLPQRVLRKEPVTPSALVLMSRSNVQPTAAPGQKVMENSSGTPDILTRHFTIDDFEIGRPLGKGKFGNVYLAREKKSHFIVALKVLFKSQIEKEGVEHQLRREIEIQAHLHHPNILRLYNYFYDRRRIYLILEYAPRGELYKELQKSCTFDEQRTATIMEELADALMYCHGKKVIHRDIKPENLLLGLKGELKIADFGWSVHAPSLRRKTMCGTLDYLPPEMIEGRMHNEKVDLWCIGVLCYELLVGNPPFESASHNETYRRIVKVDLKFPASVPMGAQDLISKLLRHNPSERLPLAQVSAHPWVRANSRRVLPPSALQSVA
Data set [14] deals with Vascular endothelial growth factor receptor 2 (Homo sapiens, UniProt P35968). Description: Inhibition of wild-type human partial length VEGFR2 (R787 to P1253 residues) expressed in mammalian expression system by Kinomescan method.
Chain of Vascular endothelial growth factor receptor 2 (P35968 whole entry, the tested form may be a part): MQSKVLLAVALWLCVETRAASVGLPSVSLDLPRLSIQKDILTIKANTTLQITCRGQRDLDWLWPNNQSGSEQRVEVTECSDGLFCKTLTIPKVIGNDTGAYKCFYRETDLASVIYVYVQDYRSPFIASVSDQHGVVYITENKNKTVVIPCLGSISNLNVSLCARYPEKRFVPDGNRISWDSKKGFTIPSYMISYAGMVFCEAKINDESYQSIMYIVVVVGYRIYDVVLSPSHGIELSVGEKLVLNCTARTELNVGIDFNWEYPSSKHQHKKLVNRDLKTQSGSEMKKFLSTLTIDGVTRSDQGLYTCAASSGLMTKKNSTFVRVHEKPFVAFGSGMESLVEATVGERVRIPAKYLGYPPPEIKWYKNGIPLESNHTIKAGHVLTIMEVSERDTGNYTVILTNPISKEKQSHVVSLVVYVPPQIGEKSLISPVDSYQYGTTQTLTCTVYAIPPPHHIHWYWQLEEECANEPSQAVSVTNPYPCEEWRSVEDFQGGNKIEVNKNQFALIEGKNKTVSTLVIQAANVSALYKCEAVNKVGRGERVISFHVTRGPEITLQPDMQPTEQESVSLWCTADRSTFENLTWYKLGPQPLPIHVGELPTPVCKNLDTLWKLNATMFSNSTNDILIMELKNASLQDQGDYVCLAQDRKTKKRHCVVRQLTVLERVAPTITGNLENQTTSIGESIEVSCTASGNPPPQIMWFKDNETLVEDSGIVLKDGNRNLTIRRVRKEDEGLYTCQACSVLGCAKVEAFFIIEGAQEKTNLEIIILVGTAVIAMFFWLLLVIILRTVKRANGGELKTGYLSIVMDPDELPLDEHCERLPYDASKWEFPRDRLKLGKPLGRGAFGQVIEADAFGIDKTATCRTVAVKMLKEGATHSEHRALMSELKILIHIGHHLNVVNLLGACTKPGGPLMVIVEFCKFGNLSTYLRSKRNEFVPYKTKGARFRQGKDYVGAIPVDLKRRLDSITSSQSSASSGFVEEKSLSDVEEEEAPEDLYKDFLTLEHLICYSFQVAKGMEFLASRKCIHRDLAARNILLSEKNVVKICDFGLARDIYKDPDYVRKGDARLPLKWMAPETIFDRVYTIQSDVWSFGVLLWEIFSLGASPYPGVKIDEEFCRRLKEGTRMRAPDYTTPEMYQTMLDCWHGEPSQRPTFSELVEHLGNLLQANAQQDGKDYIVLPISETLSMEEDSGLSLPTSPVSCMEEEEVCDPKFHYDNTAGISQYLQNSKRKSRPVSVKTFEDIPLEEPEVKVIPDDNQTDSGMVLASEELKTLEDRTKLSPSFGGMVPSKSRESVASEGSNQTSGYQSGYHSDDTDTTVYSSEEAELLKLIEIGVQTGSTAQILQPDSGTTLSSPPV
For data set [15], the target named is Platelet-derived growth factor receptor alpha (Homo sapiens, UniProt P16234). Description: Inhibition of wild-type human partial length PDGFRalpha (V575 to D1002 residues) expressed in mammalian expression system by Kinomescan method.
Chain of Platelet-derived growth factor receptor alpha (P16234 whole entry, the tested form may be a part): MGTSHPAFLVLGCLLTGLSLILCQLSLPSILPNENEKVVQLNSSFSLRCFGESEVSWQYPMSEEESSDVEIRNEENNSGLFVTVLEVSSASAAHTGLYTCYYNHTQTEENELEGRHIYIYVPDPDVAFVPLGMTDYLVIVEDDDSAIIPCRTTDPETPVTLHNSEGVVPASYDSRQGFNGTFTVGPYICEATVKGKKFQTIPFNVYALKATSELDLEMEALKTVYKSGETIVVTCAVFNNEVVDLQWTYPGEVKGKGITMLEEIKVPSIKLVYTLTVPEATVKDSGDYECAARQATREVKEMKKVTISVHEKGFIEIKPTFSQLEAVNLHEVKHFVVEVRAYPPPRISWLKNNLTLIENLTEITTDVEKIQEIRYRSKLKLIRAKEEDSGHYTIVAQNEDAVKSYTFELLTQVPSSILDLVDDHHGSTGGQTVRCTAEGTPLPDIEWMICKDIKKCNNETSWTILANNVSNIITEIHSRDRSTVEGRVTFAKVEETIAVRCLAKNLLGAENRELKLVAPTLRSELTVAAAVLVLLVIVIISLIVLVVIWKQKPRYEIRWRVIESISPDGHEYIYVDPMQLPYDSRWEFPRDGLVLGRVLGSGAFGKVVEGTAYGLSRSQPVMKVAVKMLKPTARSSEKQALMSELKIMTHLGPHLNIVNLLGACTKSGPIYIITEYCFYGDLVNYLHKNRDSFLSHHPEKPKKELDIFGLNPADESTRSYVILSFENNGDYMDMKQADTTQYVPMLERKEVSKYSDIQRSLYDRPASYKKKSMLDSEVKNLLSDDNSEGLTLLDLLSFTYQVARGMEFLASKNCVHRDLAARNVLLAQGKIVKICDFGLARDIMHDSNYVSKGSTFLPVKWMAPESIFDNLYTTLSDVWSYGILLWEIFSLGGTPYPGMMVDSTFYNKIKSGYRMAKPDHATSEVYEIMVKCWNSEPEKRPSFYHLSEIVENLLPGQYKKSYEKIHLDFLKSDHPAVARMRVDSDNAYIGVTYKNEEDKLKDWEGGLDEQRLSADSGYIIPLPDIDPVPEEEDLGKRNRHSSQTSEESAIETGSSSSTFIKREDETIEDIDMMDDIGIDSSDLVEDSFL
For another data set, the system named is BaF3. Description: Antiproliferative activity against mouse BaF3 cells transfected with human ETV6-CSF1R assessed as reduction in cell viability measured after 72 hrs by MTS method. To be noted: BaF3, 72 h. (Tetrazolium dyes change colour on reduction, which living cells bring about.)
Another data set concerns the target T3, Aurora kinase A (Homo sapiens, UniProt O14965).
T3 sequence (O14965 whole entry): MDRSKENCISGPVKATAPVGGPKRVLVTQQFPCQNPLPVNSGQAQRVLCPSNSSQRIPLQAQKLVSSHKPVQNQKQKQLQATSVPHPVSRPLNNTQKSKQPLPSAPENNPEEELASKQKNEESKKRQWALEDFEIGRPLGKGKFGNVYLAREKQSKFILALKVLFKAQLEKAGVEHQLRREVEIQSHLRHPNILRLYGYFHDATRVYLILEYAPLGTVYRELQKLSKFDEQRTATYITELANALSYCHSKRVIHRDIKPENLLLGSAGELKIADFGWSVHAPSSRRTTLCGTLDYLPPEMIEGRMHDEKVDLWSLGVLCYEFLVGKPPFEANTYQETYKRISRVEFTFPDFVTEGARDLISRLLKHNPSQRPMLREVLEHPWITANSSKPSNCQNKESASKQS
Description: Inhibition of recombinant GST-AURKA (residues Ser123 to Ser401) (unknown origin) expressed in Sf9 insect cells using tetra(-LRRASLG) peptide as substrate incubated for 90 mins by ATP Kinase Glo assay. (In general: Kinase-Glo reads ATP consumption through a luciferase reaction.)

Data set [16] relates to BMDM. As to the kind of experiment: Growth inhibition of CSF1-induced mouse BMDM cell assessed as inhibition of M2 like macrophage growth incubated for 3 days by WST-8 assay. To be noted: 72 h.
The target of data set [17] is Epithelial discoidin domain-containing receptor 1 (Homo sapiens, UniProt Q08345). Description: Inhibition of wild-type human partial length DDR1 (R565 to V876 residues) expressed in bacterial expression system by Kinomescan method.
Chain of Epithelial discoidin domain-containing receptor 1 (Q08345 whole entry, the tested form may be a part): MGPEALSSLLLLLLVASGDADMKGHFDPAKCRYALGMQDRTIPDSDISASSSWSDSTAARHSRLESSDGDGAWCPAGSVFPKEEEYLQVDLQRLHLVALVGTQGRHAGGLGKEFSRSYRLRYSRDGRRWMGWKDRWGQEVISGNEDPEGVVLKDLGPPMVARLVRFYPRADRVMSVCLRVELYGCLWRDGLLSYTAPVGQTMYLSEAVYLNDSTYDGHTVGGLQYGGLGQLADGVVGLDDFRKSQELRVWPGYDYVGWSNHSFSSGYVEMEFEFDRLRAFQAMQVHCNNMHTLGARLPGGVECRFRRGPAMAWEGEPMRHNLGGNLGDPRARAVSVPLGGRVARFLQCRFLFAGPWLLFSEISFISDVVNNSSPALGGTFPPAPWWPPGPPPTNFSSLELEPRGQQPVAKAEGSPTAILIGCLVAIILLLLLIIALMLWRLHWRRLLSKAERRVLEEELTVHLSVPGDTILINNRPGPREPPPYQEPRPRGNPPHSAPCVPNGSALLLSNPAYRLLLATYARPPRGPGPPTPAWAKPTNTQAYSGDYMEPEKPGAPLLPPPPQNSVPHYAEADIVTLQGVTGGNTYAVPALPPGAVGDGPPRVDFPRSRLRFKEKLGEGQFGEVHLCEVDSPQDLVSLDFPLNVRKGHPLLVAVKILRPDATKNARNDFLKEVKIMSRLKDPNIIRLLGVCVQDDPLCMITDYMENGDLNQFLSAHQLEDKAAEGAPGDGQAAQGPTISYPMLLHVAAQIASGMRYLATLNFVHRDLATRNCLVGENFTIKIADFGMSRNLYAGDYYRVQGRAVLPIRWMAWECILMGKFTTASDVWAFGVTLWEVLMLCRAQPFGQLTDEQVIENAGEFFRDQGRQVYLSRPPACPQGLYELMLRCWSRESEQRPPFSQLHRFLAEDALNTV
Data set [18] deals with BMDM. Description: Growth inhibition of CSF2-induced mouse BMDM cell assessed as inhibition of M1 like macrophage growth for 3 days by WST-8 assay. The note with it: 72 h.
The target of data set [19] is Macrophage colony-stimulating factor 1 receptor (Homo sapiens, UniProt P07333). Description: Inhibition of human recombinant GST-CSF1R (residues L534 to C972) expressed in Sf9 insect cells using poly(Glu,Tyr) as substrate incubated for 20 mins by ATP Kinase Glo assay.
For data set [20], the target named is Mast/stem cell growth factor receptor Kit (Homo sapiens, UniProt P10721). Description: Inhibition of human c-Kit by Kinomescan method.
Chain of Mast/stem cell growth factor receptor Kit (P10721 whole entry, the tested form may be a part): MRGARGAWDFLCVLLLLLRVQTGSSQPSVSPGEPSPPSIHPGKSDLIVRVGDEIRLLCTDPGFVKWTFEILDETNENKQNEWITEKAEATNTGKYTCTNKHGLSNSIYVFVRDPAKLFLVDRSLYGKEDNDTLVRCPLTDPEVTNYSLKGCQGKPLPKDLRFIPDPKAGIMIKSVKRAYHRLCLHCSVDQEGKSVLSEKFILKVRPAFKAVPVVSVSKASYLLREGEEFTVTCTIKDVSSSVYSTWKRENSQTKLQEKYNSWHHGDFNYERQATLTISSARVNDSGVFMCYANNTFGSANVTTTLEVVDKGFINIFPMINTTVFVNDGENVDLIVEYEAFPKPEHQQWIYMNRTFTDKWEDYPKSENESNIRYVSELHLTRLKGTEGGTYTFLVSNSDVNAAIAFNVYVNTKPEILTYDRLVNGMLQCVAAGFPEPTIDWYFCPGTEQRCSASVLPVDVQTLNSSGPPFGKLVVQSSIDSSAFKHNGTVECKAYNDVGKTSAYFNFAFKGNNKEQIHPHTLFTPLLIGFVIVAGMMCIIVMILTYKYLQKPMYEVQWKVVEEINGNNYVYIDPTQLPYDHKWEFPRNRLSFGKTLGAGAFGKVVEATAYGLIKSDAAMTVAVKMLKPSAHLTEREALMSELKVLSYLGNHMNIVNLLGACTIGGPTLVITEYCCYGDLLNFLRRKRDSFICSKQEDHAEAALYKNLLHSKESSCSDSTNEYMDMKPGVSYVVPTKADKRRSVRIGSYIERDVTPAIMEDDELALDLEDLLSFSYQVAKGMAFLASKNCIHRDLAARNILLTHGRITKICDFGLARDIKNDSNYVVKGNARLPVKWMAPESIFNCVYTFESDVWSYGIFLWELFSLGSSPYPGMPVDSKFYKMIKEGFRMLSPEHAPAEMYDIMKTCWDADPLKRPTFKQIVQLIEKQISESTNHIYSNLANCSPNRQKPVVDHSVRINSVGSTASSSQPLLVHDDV
The target of data set [21] is Platelet-derived growth factor receptor beta (Homo sapiens, UniProt P09619). Description: Inhibition of wild-type human partial length PDGFRbeta (V582 to Y1009 residues) expressed in bacterial expression system by Kinomescan method.
Data set [22] has as its target T2, Aurora kinase B. Description: Inhibition of human recombinant full length GST-AURKB using tetra(-LRRASLG) peptide as substrate incubated for 20 mins by ATP Kinase Glo assay. Also noted: species or system Sf9.
A further data set has as its system NFS-60. As to the kind of experiment: Antiproliferative activity against mouse NFS-60 cells transfected with human ETV6-CSF1R assessed as reduction in cell viability measured after 72 hrs by MTS method. The format is functional, cell-based. To be noted: NFS-60, 72 h.

SMILES strings stand for the structures. Bounds are passed on as bounds.

Regarding `CN(C)c1ccc2c(Oc3ccc(NC(=O)NCc4ccc(C(F)(F)F)nc4)cc3)ncnc2c1.CS(=O)(=O)O`, the half-life in data set [1] was 11.6 h; in data set [10], 2.4 h. Moreover, in data set [2], the Vd is 1 L/kg. In addition, the Activity entry in data set [3] is “Non-Toxic”. Further, the “fold change (FC)” value in the data set on Mus musculus [4] came out at 3; in the data set with Mus musculus [8], 2.5. For the same compound, in [5], the Cmax/dose worked out at 68 ng/mL. The same compound had a bioavailability in [6] of 34.9%. In the data set on MC-38, the inhibition in vivo at 100 mg/kg turned out to be 59%. For the same compound, the clearance in data set [7] turned out to be 8.9 mL/min/kg. Besides, in data set [9], the Tmax stood at 0.5 h.
As to `CN(C)c1ccc2c(Oc3ccc(NC(=O)NCc4ccc(C(F)(F)F)nc4)cc3)ncnc2c1`, the half-life in data set [1] is 8.7 h; in data set [10], 2.9 h. Further, the Vd in data set [2] came out at 0.6 L/kg. Also, the concentration for half-maximal inhibition (IC50) in data set [11] was over 9000 nM; in [12] it was 64.3 nM; against Aurora kinase B [13], 226 nM; in [14] it was over 9000 nM; in [15] it was 52.7 nM; on Aurora kinase A it was over 10000 nM. The IC50 with BMDM [16] was determined as 31 nM; in data set [17], 59.7 nM; in the data set with BMDM [18], 5390 nM; in data set [19], 14.4 nM; in data set [20], 1.1 nM; in data set [21], 31.5 nM. In addition, the IC50 at Aurora kinase B [22] turned out to be 1400 nM. In data set [5], this compound came in with a Cmax/dose of 24 ng/mL. This compound yielded a bioavailability in [6] of 10%. Further, the clearance in data set [7] is 4.5 mL/min/kg. For the same compound, the concentration giving a half-maximal response (EC50) in the data set with BaF3 amounted to 80 nM; with NFS-60, 95 nM. Besides, in data set [9], the Tmax amounted to 5.5 h.
